Results reported in patent US7122359B2, “Active-site engineering of nucleotidylyltransferases and general enzymatic methods for the synthesis of natural and “unnatural” UDP- and TDP-nucleotide sugars” (priority 2000, dated 2006).

Assays:
[1] = molecular target: T1, Salmonella enterica LT2 α-D-glucopyranosyl phosphate thymidylyltransferase (Ep) (Salmonella typhimurium, UniProt P26393); assay: Ep-catalyzed conversion of α-D-hexopyranosyl phosphates and NTP to NDP-sugars, HPLC (FIG. 2); assay type: biochemical; conditions: 5 mM NTP, 10 mM sugar phosphate, 30 min, 37° C.
T1 construct: made in house; host or cells: E. coli (E. coli-prfbA-C)
From the text: FIG. 2. E^p-Catalyzed Conversion of Substrates wherein superscript indicators (a)–(h) are as follows: (a) Percent conversion=[Ap/(AP+AT)]×100, where AP is the NDP-sugar product peak integration and AT represents the NTP peak integration. HRMS for all observed products reported in the supporting information. (b) Standard retention times: TDP, […]; TTP, 7.2 mm; UDP, 4.0 mm; UTP, 6.1 mm. (c) Commercially available. (d) Coelutes with commercially available standard. […] (f) Adjusted for the 2:1 α/β-28. (g) In contrast to previously published studies (See Lindquist, L; Kaiser, R.; Reeves, P. R.; Lindberg, A. A., Eur J. Biochem, 1993, 211, 763–770). (h) No products observed.
To evaluate the synthetic utility of purified thymidylyltransferase, Ep, α-D-hexopyranosyl phosphate, Mg^+2 and NTP were incubated at about 37° C. for about 30 min and the extent of product formation determined by HPLC. The results of these assays are illustrated in FIG. 2. Confirmation of product formation was based upon HPLC co-elution with commercially available standards and/or HPLC isolation and high resolution mass spectroscopy of the product. […] A reaction containing 5 mM NTP, 10 mM sugar phosphate and 5.5 mM MgCl2 in a total volume of 50 μL 50 mM potassium phosphate buffer, pH 7.5 at 37° C. was initiated by the addition of 3.52 U Ep (1 U=the amount of protein needed to produce 1 μmol TDP-D-glucose min^−1). The reaction was incubated with slow agitation for 30 min at 37° C., quenched with MeOH (50 μL), centrifuged (5 min, 14,000×g) and the supernatant was stored at −20° C. until analysis by HPLC. Samples (20 μL) were resolved on a Sphereclone 5 u SAX column (250×4.6 mm) fitted with a guard column (30×4.6 mm) using a linear gradient (20–60 mM potassium phosphate buffer, pH 5.0, 1.5 mL min^−1, A275 nm).

[2] = molecular target: T1, Salmonella enterica LT2 α-D-glucopyranosyl phosphate thymidylyltransferase (Ep); assay type: biochemical; conditions: secondary plot of Lineweaver-Burke plots, assays in triplicate
From the text: FIG. 10. […] The conditions for the Ep assay conditions and HPLC resolution of reactants and products were similar to those described in Jiang, J., Biggins, J. B. & Thorson, J. S. A General Enzymatic Method for the Synthesis of Natural and “Unnatural” UDP- and TDP-Nucleotide Sugars. J. Am. Chem. Soc. 122, 6803–6804 (2000).
(§1) Assays for product formation and steady state kinetics were accomplished using conditions similar to those described. in Jiang, J., Biggins, J. B. & Thorson, J. S. A General Enzymatic Method for the Synthesis of Natural and “Unnatural” UDP- and TDP-Nucleotide Sugars. J. Am. Chem. Soc. 122, 6803-6804 (2000). For the mutant pool assays, an aliquot which contained an eqimolar ratio of each mutant (60 μg) was utilized.

wild-type Ep = molecular target: T2, wild-type Ep (Salmonella typhimurium, UniProt P26393); assay: Conversion of sugar phosphates by wild-type enzyme (FIG. 11); assay type: biochemical, Salmonella enterica LT2
T2 construct: made in house; host or cells: E. coli (E. coli-prfbA-C)
Description: (§2) FIG. 11. Percent conversion of sugar phosphates according to the present invention by wild-type and mutant enzymes. The alterations from native substrate (Glc-1-P,1) are highlighted in red. For the mutant pool, mutants Asp41Asn, Glu62Asp, Thr201A and Trp224His were pooled, concentrated and an aliquote constituting 60 μg of each mutant (corresponding to 3.5U Ep) was utilized for the assay.
Percent conversion was determined as described in Jiang, J., Biggins, J. B. & Thorson, J. S. A General Enzymatic Method for the Synthesis of Natural and “Unnatural” UDP- and TDP-Nucleotide Sugars. J. Am. Chem. Soc. 122, 6803–6804 (2000).
as §1

[3] = molecular target: T1, Salmonella enterica LT2 α-D-glucopyranosyl phosphate thymidylyltransferase (Ep); assay: Ep-catalyzed conversion of aminodeoxy/acetamidodeoxy sugar phosphates with inorganic pyrophosphatase, HPLC (FIG. 4); assay type: biochemical; conditions: for product formation with dTTP: 2.5 mM NTP, 5.0 mM sugar phosphate, 10 U inorganic pyrophosphatase, 30 min, 37° C.
Description: To evaluate the synthetic utility of thymidylyl-transferase, purified Ep, α-D-glucopyranosyl phosphate, Mg^+2, NTP and inorganic pyrophosphatase were incubated at 37° C. for 30 min and the extent of product formation determined by HPLC. The inorganic pyrophosphatase was included to drive the reaction forward. A reaction containing 2.5 mM NTP, 5.0 mM sugar phosphate, 5.5 mM MgCl2 and 10 U inorganic pyrophosphatase in a total volume of 50 μL 50 mM potassium phosphate buffer, pH 7.5 at 37° C. was initiated by the addition of 3.52 U Ep (1 U=the amount of protein needed to produce […] TDP-D-glucose min^−1). The reaction was incubated with slow agitation for 30 min at 37° C., quenched with MeOH (50 μL), centrifuged (5 min, 14,000×g) and the supernatant was stored at −20° C. until analysis by HPLC. Samples (30 μL) were resolved on a Sphereclone 5u SAX column (150×4.6 mm) fitted with a SecurityGuard ™ cartridge (Phenomenex; Torrance, Calif.) using a linear gradient (50–200 mM potassium phosphate buffer, pH 5.0, 1.5 mL min^−1, A275 nm).
The results of these assays are illustrated in FIG. 4. For each assay, confirmation of product formation was based upon high resolution mass spectroscopy of HPLC-isolated products and, also in some cases, HPLC co-elution with commercially available standards.
A reaction containing 2.5 mM NTP, 5.0 mM sugar phosphate, 5.5 mM MgCl2 and 10 U inorganic pyrophosphatase in a total volume of 50 μL 50 mM potassium phosphate buffer, pH 7.5 at 37° C. was initiated by the addition of 3.52 U Ep (1 U=the amount of protein needed to produce 1 μmol TDP-α-D-glucose min^−1) The reaction was incubated with slow agitation for 30 min at 37° C., quenched with MeOH (50 μL), centrifuged (5 min, 14,000×g) and the supernatant was stored at −20° C. until analysis by HPLC. Samples (30 μL) were resolved on a Sphereclone 5u SAX column (250×4.6 mm) fitted with a guard column (30×4.6 mm) using a linear gradient (50–200 mM potassium phosphate buffer, pH 5.0, 1.5 mL min^−1, A275 nm).

Ep Thr102Ala mutant = molecular target: T3, Ep Thr102Ala mutant (Salmonella typhimurium, UniProt P26393, T201A); assay: Individual mutant analysis: Thr102Ala; assay type: biochemical, Salmonella enterica LT2; conditions: over wild-type Ep
T3 construct: made in house
From the text: (§3) Thr102Ala, on the other hand, was responsible for the 2-fold increase in the conversion of (108). […] Yet, cumulatively, this small set of directed mutants was able to successfully turn over three of four targeted “unnatural” substrates. […] This Ep variant will serve as an excellent foundation for second generation double mutants.
as §1

Ep Trp224His mutant = molecular target: T4, Ep Trp224His mutant (Salmonella typhimurium, UniProt P26393, W224H); assay: Individual mutant analysis: Trp224His; assay type: biochemical, Salmonella enterica LT2; conditions: deconvolution of the mutant pool
T4 construct: made in house
From the text: as §3, §1

[4] = tested on: mutant pool (Asp41Asn, Glu62Asp, Thr201A and Trp224His Ep mutants); assay: Conversion of sugar phosphates by pooled Ep mutants (FIG. 11); assay type: biochemical, Salmonella enterica LT2; conditions: 60 μg of each mutant
Description: as §2
As a rapid means to assay the entire pool of the four newly constructed mutants, the mutants were combined and the mixture directly tested for ability to convert compounds (2), (108), (89), (102), (38), and (127). […] Those substrates turned over include […] and (127), the two sugar phosphates not accepted or poorly accepted by wild-type Ep.
as §1

[5] = Specific activity of purified Ep (1 U = protein needed to produce 1 μmol TDP-D-glucose min^−1); assay type: biochemical, Salmonella enterica LT2; conditions: purified to near homogeneity
From the text: Ep is encoded by rmlA, which was previously known as rfbA (Reeves et al. Trends Microbiol. 1996, 4, 495–502). The rmlA-encoded Ep was overexpressed in E. coli to provide the desired Ep as >5% of the total soluble protein. The corresponding Ep was purified to near homogeniety with a specific activity of 110 U mg^−1, a 2-fold improvement over the previously reported values. (See Lindquist, L.; Kaiser, R.; Reeves, P. R.; Lindberg, A. A. Eur. J. Biochem., 1993, 211, 763–770.) An (NH4)2SO4 precipitate of E. coli-prfbA-C crude extracts was dialyzed against buffer B (20 mM Tris.HCl, 1 mM EDTA, pH 7.5) The dialysate was resolved by anion exchange (DE52, 3×15 cm, 50 mL buffer B wash followed by a linear gradient of 0–500 mM NaCl, 1.0 mL min^−1) and the Ep fractions combined, concentrated and further resolved by FPLC gel filtration (S-200, 2×70 cm, 50 mM Tris.HCl, 200 mM NaCl, pH 7.5). The purified Ep was stored in aliquots (−80° C.) until used.
To evaluate the synthetic utility of purified thymidylyltransferase, Ep, α-D-hexopyranosyl phosphate, Mg^+2 and NTP were incubated at about 37° C. for about 30 min and the extent of product formation determined by HPLC. The results of these assays are illustrated in FIG. 2. Confirmation of product formation was based upon HPLC co-elution with commercially available standards and/or HPLC isolation and high resolution mass spectroscopy of the product. […]

## O=P(O)(O)O[C@H]1O[C@H](CO)[C@@H](O)[C@H](O)[C@H]1O [compound 2, α-D-glucopyranosyl phosphate]
[1]
  activity as Ep substrate with TTP: prefers
[2]
  Km: 300 ± 100 µM
  Vmax: 0.03 ± 0.02 mM/min

## CC(=O)N[C@H]1[C@@H](OP(=O)(O)O)O[C@H](CO)[C@@H](O)[C@@H]1O [compound 108, 2-acetamido-2-deoxy-α-D-glucopyranosyl phosphate, reference compound]
wild-type Ep
  acceptance / conversion by wild-type Ep: poor conversion
[3]
  product formation with dTTP: well-tolerated
Ep Thr102Ala mutant
  increase in conversion by Thr102Ala mutant: 2 fold

## CC(=O)NC[C@H]1O[C@H](OP(=O)([O-])[O-])[C@H](O)[C@@H](O)[C@@H]1O.[Na+].[Na+] [compound 86, Disodium-(6-acetamido-6-deoxy-α-D-glucopyranosyl) Phosphate]
wild-type Ep
  acceptance / conversion by wild-type Ep: not well-accepted
Ep Trp224His mutant
  conversion by Trp224His mutant: responsible for converting
[3]
  product formation with dTTP: less activity
[3]; FIG. 4
  increase of product formation with UTP in comparison to dTTP: 8 fold
[4]
  turnover by the mutant pool: turned over

## Ep: Salmonella enterica LT2 rmlA-encoded α-D-glucopyranosyl phosphate thymidylyltransferase, overexpressed in E. coli and purified
[5]
  specific activity: 110 U mg^−1
